Data taken from US20030073662A1, “Regulation of cellular functions by ectopic expression of non-endogenous cell signalling receptors” (priority 1995, published 2003).
Read-outs that look alike come from different tables or passages of the source. Positions of bridges follow the written chain, without caps; N, C: chain ends. No end group written: not given here.

Tests used:
[1] = tested on: mouse TRH-R / phosphoinositide pathway in primary hepatocytes; assay: Stimulation of inositol phosphate formation in hepatocytes from rats after in vivo transfer of the TRH-R cDNA; type: cell-based, rat
Procedure: (§1) Primary hepatocytes were exposed to the vectors AdCMV.βgal or AdCMV.mTRH-R. After 24 hr, the cells were labeled for 24 hr with myo-[^3H]inositol (myo-[2-^3H]inositol; 20 Ci/mmol, Amersham Corporation, Arlington Heights, Ill.), incubated (5 min, 37° C.) with 10 mM LiCl, stimulated (60 min, 37° C.) with methyl-TRH. The cells were then lysed, the inositol phosphates were separated by anion-exchange chromatography and the radioactivity counted. The fold stimulation of inositol phosphates formation was calculated as: (dpm in inositol phosphates ×100/dpm in lipids of stimulated cells) (dpm in inositol phosphates ×100/dpm in lipids of unstimulated cells) (35). For each dose of vector, triplicate measurements were made in hepatocytes from two different animals.
(§2) Sprague-Dawley rats (250-300 g, 3 months old, fed ad libitum) were anaesthetized with ketamine-HCl (60 mg/kg) and xylazine (5 mg/kg). The Ad vectors [AdCMV.mTRH-R, AdCMV.βgal, AdCMV.Null (the “Null” vector is similar to the other vectors except that the expression cassette contains the CMV promoter but no recombinant gene) (31)] were administered via the right external jugular vein (5×10^9 pfu, 100 μl 0.9% NaCl). The livers were recovered 5 days later.
Measurement of inositol phosphates formation was identical to that described for FIG. 3. Triplicate measurements were made from three individual animals per condition.

Sprague-Dawley rats = assay: Modulation of serum glucose in rats after in vivo transfer of the TRH-R cDNA to the liver; design: species or system rat
Procedure: as §2
The vectors AdCMV.mTRH-R or AdCMV.Null (5×10^9 pfu), or saline (0.9%) as negative control (all in 100 μl) were administered to rats as described above. Five days later, the animals were anaesthetized by methoxyflurane (Pitman-Moore, Mundelein, Ill.) inhalation and the left and right external jugular veins were cannulated. After 15 min to permit stabilization, a 15 min baseline period was started, during which serum samples for glucose levels were obtained every 5 min. At “0 time” methyl-TRH (500 μg in 100 μl) or saline (0.9%, 100 μl ) was administered in one cannula and the serum samples obtained from the other cannula every 5 min for 55 min. Serum glucose levels were determined by colormetric assay (Sigma Diagnostics, St. Louis, Mo.).
The baseline glucose levels were determined for each animal as an average from −15 to 0 before administration of methyl-TRH or saline. The data are presented as the absolute change from the average baseline serum glucose level (mM) using each individual animal as its own control, and averaging the values at each time point for each group of animals. AdCMV.mTRH-R (IV)/TRH=vector administered intravenously at day 0, methyl-TRH administered at day 5, n=6 animals; AdCMV.mTRH-R(IP)/TRH=vector administered via the portal vein at day 0, methyl-TRH administered at day 5, n=5; AdCMV.Null(IV)/TRH=vector administered intravenously at day 0, methyl-TRH at day 5, n=6; saline/TRH=saline administered instead of vector at day 0, methyl-TRH at day 5, n=6; and naive/saline=nothing administered at day 0, saline at day 5, n=5. The data is presented as the mean for all animals in the group at each time point. The normal range for serum glucose Sprague-Dawley rats is 2.5 6.7 mM(36).
FIG. 9 illustrates the average change in serum glucose levels from baseline. The average change in serum glucose levels from baseline was determined for each time point from 15 to 55 min after administration of methyl-TRH or saline on day 5. The data are presented as mean±standard deviation. All statistical comparisons were made using the two-tailed Student's t-test.

[2] = molecular target: T1, mouse thyrotropin releasing hormone receptor (TRH-R) (Mus musculus, UniProt P21761); type: binding
T1 construct: containing the protein-coding region of the mouse TRH-R cDNA, nucleotides 233-1462 of plasmid pBSmTRHR; expressed in transfected cells; host or cells: Primary Sprague-Dawley rat hepatocytes transduced with adenovirus AdCMV.mTRH-R, either in vitro (moi 1-100) or in vivo (i.v., hepatocytes isolated 5 days later)
T1 sequence (P21761 whole entry): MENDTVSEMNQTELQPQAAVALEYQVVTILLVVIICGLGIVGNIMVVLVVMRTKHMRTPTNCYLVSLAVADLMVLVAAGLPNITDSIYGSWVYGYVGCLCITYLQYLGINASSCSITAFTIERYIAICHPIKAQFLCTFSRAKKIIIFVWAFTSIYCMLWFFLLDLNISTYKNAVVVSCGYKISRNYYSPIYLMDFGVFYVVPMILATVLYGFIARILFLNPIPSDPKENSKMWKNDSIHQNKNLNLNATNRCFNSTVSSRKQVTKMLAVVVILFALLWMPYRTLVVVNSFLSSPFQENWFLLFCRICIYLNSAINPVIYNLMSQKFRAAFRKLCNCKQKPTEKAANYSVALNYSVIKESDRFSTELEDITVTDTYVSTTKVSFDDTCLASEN
Procedure: (§3) FIG. 2 illustrates the binding of methylthyrotropin releasing hormone (methyl-TRH) to hepatocytes following adenovirus-mediated in vitro transfer of the TRH-R cDNA. […] Following incubation for 24 hr with the vectors AdCMV.βgal or AdCMV.mTRH-R, the hepatocytes (10^6/well) were incubated for 60 min with [^3H]methyl-TRH (82.5 Ci/mmol, New England Nuclear-Dupont, Boston, Mass.) or [^3H]methyl-TRH plus excess unlabeled methyl-TRH (Sigma, St. Louis, Mo.). Free ligand was removed by aspirating the medium and washing the cells 5 times with 2 ml (4° C.) Hanks balanced salt solution. Cell associated radioactivity was measured by dissolving the cells with 1 ml of 0.4 N NaOH and counting. Specific binding of the [^3H]methyl-TRH was calculated as: [(dpm of [^3H]methyl-TRH)-(dpM [^3 H]methyl-TRH in the presence of unlabeled methyl-TRH)] (34). For each dose of the vector, triplicate measurements were made in hepatocytes from two different animals. The number of TRH-R receptor sites was calculated assuming a one-to-one stoichiometry of ligand to receptor and a homogeneous distribution of TRH-Rs.

[3] = molecular target: T1, mouse thyrotropin releasing hormone receptor (TRH-R); assay: [3H]methyl-TRH binding to primary hepatocytes from rats after in vivo adenovirus-mediated transfer of the TRH-R cDNA; design: species or system rat
Procedure: as §3, §2
FIGS. 4 and 5 are Northern analyses. Liver RNA (10 μg/lane) was evaluated with a mouse TRH-R cDNA probe (FIG. 4, lanes 1 and 2) or, as a positive control, […] cDNA (FIG. 5, lanes 3 and 4). The sizes of the transcripts are indicated. Lanes 1 and 3 (FIG. 4 and FIG. 5, respectively) are animals receiving AdCMV. βgal. […] The analysis of [^3H]methyl-TRH binding was identical to that described for FIG. 2. Triplicate measurements were made from three individual animals per condition.

[4] = tested on: mouse TRH-R / phosphoinositide pathway in primary hepatocytes; assay: Stimulation of inositol phosphate formation in hepatocytes after in vitro transfer of the TRH-R cDNA; type: cell-based, rat
Excerpt: The replication-deficient recombinant adenovirus vectors are all E1a^−, partial E1b^−, partial E3^− based on adenovirus type 5, in which an expression cassette containing a promoter, driving the expression of a recombinant gene, is inserted at the site of the El deletion. AdCMV.mTRH-R contains an expression cassette with the cytomegalovirus early intermediate promoter/enhancer (CMV) followed by the mouse thyrotropin releasing hormone receptor (TRH-R) cDNA (30). AdCMV.βgal carries the CMV promoter and the E.coli LacZ gene [encoding β-galactosidase (βgal)] (31). The adenovirus vectors were prepared, purified, and titered as previously described (32,33). […]
as §1, with “For each dose of vector, triplicate measurements were made in hepatocytes from two different animals.” left out

[5] = hepatocytes uninfected or infected with control vector AdCMV.βgal
[6] = read-out: Kd of methyl-TRH binding
[7] = hepatocytes from AdCMV.mTRH-R infected animals, not shown

## NC(=O)[C@@H]1CCCN1C(=O)[C@H](Cc1cnc[nH]1)NC(=O)[C@@H]1CCC(=O)N1 [TRH, thyrotropin-releasing hormone]
[1]; hepatocytes from animals infected 5 days previously with AdCMV.mTRH-R
  fold stimulation of inositol phosphate formation above controls of no added methyl-TRH: 16.9±1.8 fold
[1]; hepatocytes from uninfected animals and animals infected in vivo with AdCMV.βgal
  stimulation of inositol phosphate formation: no stimulation of inositol phosphate formation

## Cn1cnc(C[C@H](NC(=O)[C@@H]2CCC(=O)N2)C(=O)N2CCC[C@H]2C(N)=O)c1 [methyl-TRH, methylthyrotropin releasing hormone]
Sprague-Dawley rats; methyl-TRH 500 μg IV, rats given AdCMV.mTRH-R intravenously 5 days previously
  increase in blood glucose over baseline from 15 to 55 min after administration: 1.73 ± 0.26 mM
Sprague-Dawley rats; methyl-TRH IV, control rats given saline (similar with AdCMV.Null) 5 days previously
  change in blood glucose over baseline: small increase in blood glucose
Sprague-Dawley rats; methyl-TRH IV, rats given AdCMV.mTRH-R intravenously 5 days previously
  time of peak rise in blood glucose after administration: 15 min
Sprague-Dawley rats; methyl-TRH IV, rats given AdCMV.mTRH-R intravenously 5 days previously, experiment terminated at 55 min
  time for which elevation in blood glucose was maintained: at least 55 min
Sprague-Dawley rats; methyl-TRH IV, rats given AdCMV.mTRH-R via the portal vein 5 days previously
  rise in blood glucose compared with intravenous vector group: superimposable
[2]; hepatocytes infected with AdCMV.mTRH-R, not shown
  internalization of ligand-receptor complex: internalized
[2]; [5]
  specific binding of methyl-TRH: no specific binding
[2]; [6]
  Kd: 3.18 ± 0.39 nM
[3]; [7]
  internalization of methyl-TRH complex: underwent internalization
[3]; hepatocytes from animals receiving AdCMV.mTRH-R in vivo
  methyl-TRH specific binding: high levels of methyl-TRH specific binding
[3]; hepatocytes from naive animals or animals receiving control vector AdCMV.βgal
  methyl-TRH specific binding: no specific methyl-TRH binding
[3]; [6]
  Kd: 2.51 ± 0.32 nM
[1]; [7]
  period of increase in formation of inositol phosphates after addition: at least 1 hr
[4]; hepatocytes infected in vitro with AdCMV.mTRH-R, dependent on vector dose
  inositol phosphates formation: increased amounts of inositol phosphates
[4]; [5]
  inositol phosphates formation: no increase in inositol phosphates

## [Arg^8]vasopressin (CYFQNCPRG-NH2; disulfide 1-6; ends not checked; UniProt P01185 20-28, looked up) [positive control for rise in blood glucose]
Sprague-Dawley rats; positive control, intravenous route, 55 min evaluation, not shown
  change in blood glucose: an increase in blood glucose, followed by a decrease
